These results are taken from publication PMC7773179, “Development and application of high-throughput screens for the discovery of compounds that disrupt ErbB4 signaling: Candidate cancer therapeutics” (PLoS ONE, 2020).

Test [1] has as its target T1, ErbB4 (Homo sapiens, UniProt Q15303).
T1 construct: expressed in transfected cells; host or cells: CEM/ErbB4 cells
The test can be described thus: phospho-ErbB4 sandwich ELISA: stimulation of ErbB4 tyrosine phosphorylation in CEM/ErbB4 cells. Type of test: cell-based. The note with it: for Emax: percentage of ErbB4 tyrosine phosphorylation stimulated by 10 nM NRG1β, read-out: ErbB4 Tyrosine Phosphorylation Emax ± SE; for EC50: semi-automated, 0–30 μM, at least three independent trials, read-out: ErbB4 Tyrosine Phosphorylation EC50 ± SE. The text has this:
Our ultimate goal is the identification of ErbB4 partial agonists that inhibit coupling of ErbB4 to cell proliferation, preferably through stimulation of phosphorylation-dependent ErbB4 turnover and degradation. Thus, the first goal of these experiments is to develop and deploy an assay for stimulation of ErbB4 tyrosine phosphorylation. The CEM/ErbB4 cell line previously validated for assaying ligand-induced ErbB4 tyrosine phosphorylation was used to develop a 96-well assay for stimulation and inhibition of ErbB4 tyrosine phosphorylation. Briefly, ErbB4 tyrosine phosphorylation was assayed using a “sandwich” enzyme-linked immunosorbent assay (ELISA) kit (R&D Systems) that features an anti-ErbB4 capture antibody and an anti-phosphotyrosine detection antibody.
Lysates generated by a previously established protocol for stimulating ErbB4 tyrosine phosphorylation in CEM/ErbB4 cells were used to develop and evaluate the ELISA conditions. Briefly, the CEM/ErbB4 cells were starved for 24 hours in serum- and factor-free base medium (RPMI) before being stimulated for seven minutes on ice with NRG2β (full agonist positive control), NRG2β/Q43L (partial agonist positive control), or NRG2β diluent (mock stimulation negative control). The cells were then lysed, and the lysates were immediately assayed for ErbB4 tyrosine phosphorylation or stored at -80°C until assayed.
Ligand-induced ErbB4 tyrosine phosphorylation was stimulated using a published protocol. Briefly, the CEM/ErbB4 cells were starved for 24 hours in serum- and factor-free base medium (RPMI) before being stimulated for 7 minutes on ice with an ErbB4 ligand (NRG1β, NRG2β, or NRG2β/Q43L) or candidate small molecule ErbB4 partial agonists. The cells were then lysed using a published protocol, and the lysates were immediately assayed for ErbB4 tyrosine phosphorylation or stored at -80°C until assayed.
ErbB4 tyrosine phosphorylation was analyzed using a 96-well “sandwich” enzyme-linked immunosorbent assay (ELISA) kit from R&D Systems (Catalog number DYC2115-2), which features an anti-ErbB4 capture antibody and an anti-phosphotyrosine antibody that is coupled to horseradish peroxidase (HRP). First, each well in a 96-well flat-bottom plate (ELISA plate) was coated with the anti-ErbB4 capture antibody, which recognizes the amino terminus of ErbB4. Nonspecific binding sites were then treated with a blocking buffer (1% BSA in PBS). Lysate samples containing ErbB4 were then added to the wells and incubated to permit ErbB4 binding to the immobilized anti-ErbB4 antibody. Then, an anti-phosphotyrosine antibody tagged with HRP was used to detect and visualize the phosphorylated tyrosine residues of the immobilized ErbB4 molecules. Oxidation of 3,3´,5,5´-tetramethylbenzidine by HRP (stopped using sulfuric acid) is indicative of ErbB4 tyrosine phosphorylation and was detected by measuring absorption at 450 nm. The data generated during the course of validating these assay conditions can be found in a (S1 Data).
A Beckman Coulter Biomek 4000 automated liquid handling system was used to convert our standard, batch method for agonist stimulation of ErbB4 tyrosine phosphorylation to a semi-automated 96-well methodology. […] After stimulation, lysis buffer was added to each well and incubated for 20 minutes at 4°C with shaking. Following incubation, the plates were centrifuged at 3200 RCF for 20 minutes at 4°C.

For test [2], the system named is BaF3/EGFR+ErbB4 cells. The test can be described thus: ErbB4-dependent (NRG1β-induced, IL3-independent) proliferation of BaF3/EGFR+ErbB4 cells, semi-automated MTT assay. Format: cell-based, Mouse. The note with it: for selective and potent inhibition of ErbB4-dependent cell proliferation (in words): ErbB4-dependent versus IL3-dependent proliferation; for IC50: Mus musculus, BaF3, read-out: IC50 against 0.3 nM NRG1β, three independent trials; for IC50 / NRG1β Emax ± SE in the presence of candidate: 120 h MTT; for NRG1β Emax ± SE in the presence of candidate: increasing NRG1β, three trials. Here is the method: This proliferation is dependent upon exogenous ErbB4 expression.
As noted earlier, the BaF3/EGFR+ErbB4 cells are IL3 dependent and this dependency can be rescued by stimulation of ErbB4 coupling to cell proliferation. Therefore, the specificity of each of the 19 candidate ErbB4 inhibitors was tested by assaying inhibition of ErbB4-dependent and IL3-dependent cellular proliferation in parallel.
For orientation: Tetrazolium dyes change colour on reduction, which living cells bring about.

Test [3] relates to BaF3/EGFR+ErbB4 cells. The test can be described thus: IL3-dependent proliferation of BaF3/EGFR+ErbB4 cells, semi-automated MTT assay. The conditions noted are these: for IC50: Mus musculus, BaF3, 120 h; for IC50 against 0.1 nM IL3: three independent trials, 120 h MTT, NA = not active.
Procedure: As noted earlier, the BaF3/EGFR+ErbB4 cells are IL3 dependent and this dependency can be rescued by stimulation of ErbB4 coupling to cell proliferation [8]. Therefore, the specificity of each of the 19 candidate ErbB4 inhibitors was tested by assaying inhibition of ErbB4-dependent and IL3-dependent cellular proliferation in parallel.
Where [4] appears, read: read-out: IC50 against 0.1 nM IL3, extrapolated value.
Where [5] appears, read: read-out: IC50 against 0.1 nM IL3.

T1 sequence (Q15303 26-1308): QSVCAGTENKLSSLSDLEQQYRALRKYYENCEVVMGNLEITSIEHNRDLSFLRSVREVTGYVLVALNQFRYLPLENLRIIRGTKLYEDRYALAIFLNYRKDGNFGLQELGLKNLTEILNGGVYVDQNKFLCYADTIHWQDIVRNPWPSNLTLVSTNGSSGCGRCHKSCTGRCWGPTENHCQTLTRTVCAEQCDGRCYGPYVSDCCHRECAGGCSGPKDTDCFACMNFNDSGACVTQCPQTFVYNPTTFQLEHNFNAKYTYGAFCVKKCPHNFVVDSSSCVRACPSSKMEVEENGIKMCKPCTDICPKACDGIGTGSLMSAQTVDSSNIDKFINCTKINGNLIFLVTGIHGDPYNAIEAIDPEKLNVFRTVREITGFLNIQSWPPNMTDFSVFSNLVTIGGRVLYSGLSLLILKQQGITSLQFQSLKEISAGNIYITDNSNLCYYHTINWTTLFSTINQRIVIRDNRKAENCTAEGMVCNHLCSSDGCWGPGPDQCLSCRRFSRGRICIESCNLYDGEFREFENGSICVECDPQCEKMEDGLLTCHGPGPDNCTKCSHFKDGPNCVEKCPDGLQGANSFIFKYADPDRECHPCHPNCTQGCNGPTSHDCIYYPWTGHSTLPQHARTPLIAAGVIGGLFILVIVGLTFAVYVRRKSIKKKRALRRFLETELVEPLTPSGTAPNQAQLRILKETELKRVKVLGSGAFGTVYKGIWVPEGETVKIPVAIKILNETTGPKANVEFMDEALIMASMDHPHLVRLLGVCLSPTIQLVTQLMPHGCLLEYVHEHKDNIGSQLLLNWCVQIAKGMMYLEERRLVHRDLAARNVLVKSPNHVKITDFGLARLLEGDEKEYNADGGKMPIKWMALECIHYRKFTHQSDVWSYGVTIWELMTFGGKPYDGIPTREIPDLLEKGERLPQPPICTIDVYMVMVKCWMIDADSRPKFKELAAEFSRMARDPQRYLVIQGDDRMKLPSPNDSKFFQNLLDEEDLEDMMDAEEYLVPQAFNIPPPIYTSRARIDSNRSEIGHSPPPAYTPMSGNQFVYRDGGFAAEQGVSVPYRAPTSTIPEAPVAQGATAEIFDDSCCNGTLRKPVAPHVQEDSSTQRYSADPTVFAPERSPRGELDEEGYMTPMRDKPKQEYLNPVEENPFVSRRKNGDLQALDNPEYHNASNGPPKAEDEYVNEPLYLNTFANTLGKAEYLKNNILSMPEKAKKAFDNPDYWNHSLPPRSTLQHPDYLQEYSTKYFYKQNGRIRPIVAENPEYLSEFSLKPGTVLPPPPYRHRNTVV

A word on the Emax: it is the maximal effect, on the per cent scale that the assay sets. The EC50 is the concentration giving half of the maximal effect. Broadly, the IC50 is the concentration needed to halve the response being measured. As to `O=C(Nc1cccc(O)c1)c1cc2nc(-c3ccccc3)cc(-c3ccccc3)n2n1` [SR-33487], in test [1], the maximum response (Emax) worked out at 2.7 ± 0.2% and the EC50 is under 0.3 µM. For the same molecule, the “selective and potent inhibition of ErbB4-dependent cell proliferation (in words)” value (“selective and potent inhibition” below) in test [2] is “selectively and potently inhibit”. Also, the 50% inhibitory concentration (IC50) in test [2] (NA = not active) came out at 6.8 µM. Further, the “NRG1β Emax ± SE in the presence of candidate” value (shortened to “NRG1β Emax ± SE”) in test [2] (candidate 30 μM) stood at 0.07 ± 0.01 AU. Besides, the half-inhibitory concentration (IC50) in test [3] (setting [4]) was 2100 µM.

For the molecule `CCOc1ccc(CN(C(=O)[C@H](N)Cc2c[nH]c3ccccc23)C2CC2)cc1` [SR-33511], in test [1], the maximal effect (Emax) worked out at 5.2 ± 1% and the EC50 stood at 2.1 ± 1.3 µM. Also, the concentration for half-maximal inhibition (IC50) in test [2] (NA = not active) was determined as 6.8 µM. For the same molecule, the “NRG1β Emax ± SE” value in test [2] (candidate 30 μM) came to 0 AU. The half-inhibitory concentration (IC50) in test [3] (setting [5]) is 13 µM.

Regarding `CCOC(=O)C1=C(N)OC2=C(C(=O)CC(C)(C)C2)C1C1CCCCC1` (centres unmarked) [SR-33491], in test [1], the Emax was found to be 2.8 ± 0.4% and the half-maximal effective concentration (EC50) is 0.68 ± 0.36 µM. In addition, the “selective and potent inhibition” value in test [2] was “selectively and potently inhibit”. Also, the 50% inhibitory concentration (IC50) in test [2] (NA = not active) turned out to be 29 µM. For the same molecule, in test [2] (candidate 30 μM), the “NRG1β Emax ± SE” value worked out at 0.15 ± 0.02 AU. In test [3], the “IC50 against 0.1 nM IL3” value is recorded as “no inhibition”.

Turning to `O=[N+]([O-])c1ccc(CN2CCN(C3CCC(c4ccccc4)CC3)CC2)cc1` (centres unmarked) [SR-33497], the Emax in test [1] was 1.8 ± 0.5%. For the same molecule, the EC50 in test [1] was under 0.3 µM. Besides, the half-inhibitory concentration (IC50) in test [2] (*Extrapolated value) was 47 µM; in test [3] (setting [4]), 390 µM. Also, the “NRG1β Emax ± SE” value in test [2] (candidate 30 μM) is given as 0.09 ± 0.02 AU.

Regarding `O=C1NC2=Nc3ccccc3SC(c3ccccc3)=C2C(c2ccc(O)cc2)N1` (centres unmarked) [SR-33494], in test [1], the Emax was 2.3 ± 0.4% and the concentration for a half-maximal effect (EC50) was under 0.3 µM. In test [2], the “selective and potent inhibition” value was “selectively and potently inhibit”. Also, the half-inhibitory concentration (IC50) in test [2] (NA = not active) came out at 7 µM. In test [2] (candidate 30 μM), the “NRG1β Emax ± SE” value came to 0 AU. Further, in test [3] (setting [4]), the concentration for half-maximal inhibition (IC50) is 32 µM.

On to `COc1ccc(C2CCCN2C(=O)c2c(-c3ccccc3Cl)noc2C)cc1` (centres unmarked) [SR-33509], for which, in test [1], the Emax is 1.4 ± 0.3% and the concentration giving a half-maximal response (EC50) was 0.38 ± 0.25 µM. In test [2] (*Extrapolated value), the 50% inhibitory concentration (IC50) was 32 µM. The “NRG1β Emax ± SE” value in test [2] (candidate 30 μM) was found to be 0.11 ± 0.02 AU. Moreover, in test [3], the “IC50 against 0.1 nM IL3” value was “fails to inhibit”.

For `CCC(=O)NC(N(Cc1ccccc1)Cc1ccccc1)C(Cl)(Cl)Cl` (centres unmarked) [SR-33483], in test [1], the maximal response (Emax) came out at 4.7 ± 1.1% and the 50% effective concentration (EC50) came to 0.47 ± 0.38 µM. Further, the “selective and potent inhibition” value in test [2] is “selectively and potently inhibit”. The IC50 in test [2] (NA = not active) was determined as 6 µM. The “NRG1β Emax ± SE” value in test [2] (candidate 30 μM) came to 0 AU. In addition, the concentration for half-maximal inhibition (IC50) in test [3] (setting [5]) was found to be 28 µM.

Regarding `Cc1nn(-c2ccccc2)c2c1C(c1ccccc1F)SCC(=O)N2` (centres unmarked) [SR-33510], in test [1], the maximum response (Emax) worked out at 1.2 ± 0.4% and the concentration giving a half-maximal response (EC50) amounted to 2 ± 0.8 µM. In test [2] (NA = not active), the 50% inhibitory concentration (IC50) came out at 11 µM. Besides, in test [2] (candidate 30 μM), the “NRG1β Emax ± SE” value is 0.03 ± 0.01 AU. In addition, in test [3] (setting [5]), the 50% inhibitory concentration (IC50) came to 29 µM.

Consider `O=C(c1nn2c(c1Cl)NC(c1cccs1)CC2C(F)(F)F)N(Cc1ccccc1)Cc1ccccc1` (centres unmarked) [SR-33493], for which the maximal response (Emax) in test [1] was found to be 2.1 ± 3.8%. For the same molecule, the half-maximal effective concentration (EC50) in test [1] is under 0.3 µM. In addition, the IC50 in test [2] (NA = not active) amounted to 5.6 µM; in test [3] (setting [5]) it was 15 µM. Also, the “NRG1β Emax ± SE” value in test [2] (candidate 30 μM) is 0 AU.

Consider `CCCOc1ccc(C(=O)C(CCCCC(CN(C)C)C(=O)c2ccc(OCCC)cc2)CN(C)C)cc1` (centres unmarked) [SR-33486], for which the Emax in test [1] came out at 5.9 ± 2.8%. Moreover, the EC50 in test [1] was under 0.3 µM. Also, in test [2], the “selective and potent inhibition” value was “selectively and potently inhibit”. In addition, the IC50 in test [2] (NA = not active) came out at 0.11 µM; in test [3] (setting [5]), 0.45 µM. Also, in test [2] (candidate 30 μM), the “NRG1β Emax ± SE” value came out at 0 AU.

As for `O=C1NC(=O)/C(=C\c2ccc(OCc3ccc4ccccc4c3)c(I)c2)N1` [SR-33498], in test [1], the Emax amounted to 1.4 ± 0.4% and the half-maximal effective concentration (EC50) is 1.5 ± 0.6 µM. Further, the concentration for half-maximal inhibition (IC50) in test [2] (NA = not active) was determined as 2.3 µM. The “NRG1β Emax ± SE” value in test [2] (candidate 30 μM) is listed as 0 AU. Also, the half-inhibitory concentration (IC50) in test [3] (setting [5]) amounted to 4.8 µM.

As to `O=S(=O)(NCc1cccnc1)c1ccc(Br)cc1Br` [SR-33485], the Emax in test [1] was determined as 3 ± 0.9%. Besides, the EC50 in test [1] is under 0.3 µM. Also, the figures for the 50% inhibitory concentration (IC50) in test [2] (NA = not active) and in test [3] (setting [4]) were 13 µM and 38 µM, respectively. In test [2] (candidate 30 μM), the “NRG1β Emax ± SE” value was determined as 0.01 ± 0.02 AU.

As to `O=C(CC1c2ccccc2Oc2ccccc21)NCCOc1ccccc1` [SR-33492], in test [1], the maximal response (Emax) was found to be 1.8 ± 0.2% and the EC50 was 4.1 ± 2.9 µM. In addition, in test [2], the “selective and potent inhibition” value is “selectively and potently inhibit”. Further, the half-inhibitory concentration (IC50) in test [2] (NA = not active) is 12 µM. Also, the “NRG1β Emax ± SE” value in test [2] (candidate 30 μM) was 0.03 ± 0.01 AU. Also, the half-inhibitory concentration (IC50) in test [3] (setting [4]) is 81 µM.

Take `COc1cc(CNCC2CCNCC2)cc(Cl)c1OCc1ccc(C)cc1` [SR-33507]: in test [1], the maximum response (Emax) was 2.9 ± 0.4% and the concentration for a half-maximal effect (EC50) is under 0.3 µM. The half-inhibitory concentration (IC50) in test [2] (NA = not active) is 0.39 µM. Further, in test [2] (candidate 30 μM), the “inhibition of NRG1β-stimulated ErbB4-dependent proliferation (in words)” value is “completely inhibits” and the “NRG1β Emax ± SE” value amounted to 0 AU. Moreover, the 50% inhibitory concentration (IC50) in test [3] (setting [5]) came out at 0.72 µM.
